Measured values as given in ChEMBL document CHEMBL1255552, “Synthesis and SAR of 2-aryl-3-aminomethylquinolines as agonists of the bile acid receptor TGR5” (Bioorg Med Chem Lett, 2010).

Assays:
[1] = Volume of distribution in mouse at 3 mg/kg, iv; type: ADME, organism-based; parameters: dose 3 mg/kg, route intravenous; conditions: in vivo
[2] = Cmax in mouse at 30 mg/kg, po; type: ADME, organism-based; parameters: dose 30 mg/kg, route oral; conditions: in vivo
Mus musculus [3] = experiment: (§1) AUC in mouse at 30 mg/kg, po; type: ADME, organism-based, Plasma; parameters: dose 30 mg/kg, route oral; conditions: in vivo
[4] = Half life in mouse at 30 mg/kg, po; type: ADME, organism-based; parameters: dose 30 mg/kg, route oral; conditions: in vivo
Mus musculus [5] = experiment: (§2) Oral bioavailability in mouse at 30 mg/kg; type: ADME, organism-based; conditions: in vivo
[6] = Clearance in mouse at 3 mg/kg, iv; type: ADME, organism-based; parameters: dose 3 mg/kg, route intravenous; conditions: in vivo
[7] = as §1; type: ADME, organism-based, Plasma; parameters: dose 30 mg/kg, route oral; conditions: plasma
[8] = as §2; type: ADME, organism-based; conditions: in vivo

| Structure (SMILES) | Vd [1] [L/kg] | Cmax [2] [ng/mL] | AUC (Mus musculus [3]) [ng·h/mL] | half-life [4] [h] | F (Mus musculus [5]) [%] | clearance [6] [mL/min/kg] | AUC [7] [ng·h/mL] | bioavailability [8] [%] |
| --- | --- | --- | --- | --- | --- | --- | --- | --- |
| Oc1ccc2cc(CNCCc3ccc(Br)cc3)c(-c3ccsc3)nc2c1 | 2.4 | 370 | 400 | 4.4 | 9 | – | – | – |
| COc1cc2nc(-c3ccsc3)c(CNCCc3ccc(Br)cc3)cc2cc1O | 1.4 | 500 | – | 7.7 | – | 29 | 860 | 10 |
